Experimental data published in patent US11471442B2, “Administration of gut-selective JAK3 inhibitor” (THERAVANCE BIOPHARMA R&D IP, LLC, priority 2020, dated 2022).

Test: Phase 1 multiple ascending dose (MAD, Part B) safety and tolerability in healthy subjects
Type: in vivo, human
Details: for Most frequent TEAEs: Acne / Most frequent TEAEs: Dizziness / Most frequent TEAEs: Headache / Most frequent TEAEs: Pain in extremity / Subjects with TEAEs: Any TEAE / Subjects with TEAEs: Moderate or severe TEAE / Subjects with TEAEs: Serious TEAE / Subjects with TEAEs: TEAE leading to discontinuation / Total number of TEAEs: MAD, n = 6
Text: This clinical study was the first in human study of a compound of formula (I). The purpose of this study was to assess the safety, tolerability and pharmacokinetics (PK) of the compound of formula (I) through single ascending dose administration (Part A) and multiple dose administrations (Part B) in healthy subjects.
The number and severity of treatment emergent adverse events (TEAE5) following single (Part A) or multiple (Parts B) oral doses of the compound of formula (I) and matching placebo, and changes in safety laboratory assessments, vital signs, and ECGs.
24 healthy, adult male and female subjects were enrolled in Part B. […] cohorts (B1 to B3) of 8 healthy subjects (6 active and 2 placebo) were evaluated.
In each cohort, healthy subjects meeting eligibility criteria were sequentially randomized in a 3:1 ratio to receive either the compound of formula (I) or placebo BID, each morning and evening (approximately 12 hours following the morning dose) for 10 consecutive days of dosing, except for Day 10 where subjects were only received a morning dose. Subjects were dosed in an upright (i.e., seated or standing) position and remained upright for 5 minutes after dosing before a posture change for other study procedures, if applicable. Subjects fasted overnight for at least 9.5 hours prior to morning dose on Day 1 and Day 10. Subjects continued the fast for at least 4 hours post morning dose on these days. For all other morning doses and for all evening doses (i.e., Day 1 evening and Days 2 to 9), subjects were required to fast for at least 2 hours prior and for at least 2 hours following the dose.
Safety was determined by evaluating physical examinations, vital signs, safety 12-lead electrocardiograms (ECGs) monitoring, clinical laboratory tests, and adverse events (AEs). For procedures scheduled to be performed at common times, collection of PK samples was collected as close as possible to the designated time. The cardiodynamic recordings via ECG extractions from the Holter monitor were conducted as close as possible prior to the corresponding PK sampling. Vital signs, followed by safety ECGs, were be taken before the PK sampling (or before the cardiodynamic sampling if scheduled at the same time), unless PK samples were late as a result in which case vital signs were taken following the PK sampling.
Safety analyses were performed using the Safety analysis set. Safety variables include vital signs, adverse events, clinical laboratory results (hematology, chemistry, coagulation, and urinalysis), and ECG parameters, such as Friderica's corrected QT interval (QTcF), PR interval, QT interval, QRS interval, and heart rate, from standard safety digital ECGs. Vital signs were summarized in terms of observed values and changes from baseline.

**Q.** For `CN(C)C/C=C/C(=O)N1CC(COc2cc(-c3ccc(O)cc3)cc3[nH]ncc23)C1` [compound of formula (I)], which “serious AEs” value (MAD cohorts) is on record?
**A.** The value was “No serious AEs”.

**Q.** What about the “severity of reported treatment-emergent AEs” value (MAD cohorts) of the same compound?
**A.** Its value is “mild”.

**Q.** What about the “changes from predose baseline in laboratory assessments (lipid, coagulation, hematology), vital signs or ECGs” value (MAD cohorts, any time point postdose) of the same compound?
**A.** The value was “No clinically significant changes”.

**Q.** And the “Most frequent TEAEs: Acne” value (100 mg BID oral for 10 days)?
**A.** The value was 1 (17).

**Q.** What about the “Most frequent TEAEs: Dizziness” value (100 mg BID oral for 10 days) of the same compound?
**A.** The value was 2 (33).

**Q.** And the “Most frequent TEAEs: Headache” value (100 mg BID oral for 10 days)?
**A.** Its value is 2 (33).

**Q.** What about the “Most frequent TEAEs: Pain in extremity” value (100 mg BID oral for 10 days) of the same compound?
**A.** The value was 1 (17).

**Q.** What about the “Subjects with TEAEs: Any TEAE” value (100 mg BID oral for 10 days) of the same compound?
**A.** Its value is 5 (83).

**Q.** What about the “Subjects with TEAEs: Moderate or severe TEAE” value (100 mg BID oral for 10 days) of the same compound?
**A.** The value was 0.

**Q.** What about the “Subjects with TEAEs: Serious TEAE” value (100 mg BID oral for 10 days) of the same compound?
**A.** Its value is 0.

**Q.** What about the “Subjects with TEAEs: TEAE leading to discontinuation” value (“Subjects with TEAEs: TEAE leading” below) (100 mg BID oral for 10 days) of the same compound?
**A.** The value was 0.

**Q.** What about the “Total number of TEAEs” value (100 mg BID oral for 10 days) of the same compound?
**A.** Its value is 11.

**Q.** What about the “Most frequent TEAEs: Acne” value (300 mg BID oral for 10 days) of the same compound?
**A.** The value was 0.

**Q.** What about the “Most frequent TEAEs: Dizziness” value (300 mg BID oral for 10 days) of the same compound?
**A.** Its value is 0.

**Q.** And the “Most frequent TEAEs: Headache” value (300 mg BID oral for 10 days)?
**A.** Its value is 0.

**Q.** What about the “Most frequent TEAEs: Pain in extremity” value (300 mg BID oral for 10 days) of the same compound?
**A.** Its value is 0.

**Q.** What about the “Subjects with TEAEs: Any TEAE” value (300 mg BID oral for 10 days) of the same compound?
**A.** Its value is 1 (17).

**Q.** What about the “Subjects with TEAEs: Moderate or severe TEAE” value (300 mg BID oral for 10 days) of the same compound?
**A.** Its value is 0.

**Q.** And the “Subjects with TEAEs: Serious TEAE” value (300 mg BID oral for 10 days)?
**A.** Its value is 0.

**Q.** What about the “Subjects with TEAEs: TEAE leading” value (300 mg BID oral for 10 days) of the same compound?
**A.** Its value is 0.

**Q.** What about the “Total number of TEAEs” value (300 mg BID oral for 10 days) of the same compound?
**A.** Its value is 9.

**Q.** And the “Most frequent TEAEs: Acne” value (1000 mg BID oral for 10 days)?
**A.** The value was 0.

**Q.** What about the “Most frequent TEAEs: Dizziness” value (1000 mg BID oral for 10 days) of the same compound?
**A.** Its value is 0.

**Q.** And the “Most frequent TEAEs: Headache” value (1000 mg BID oral for 10 days)?
**A.** Its value is 0.

**Q.** What about the “Most frequent TEAEs: Pain in extremity” value (1000 mg BID oral for 10 days) of the same compound?
**A.** The value was 0.

**Q.** What about the “Subjects with TEAEs: Any TEAE” value (1000 mg BID oral for 10 days) of the same compound?
**A.** The value was 0.

**Q.** And the “Subjects with TEAEs: Moderate or severe TEAE” value (1000 mg BID oral for 10 days)?
**A.** Its value is 0.

**Q.** And the “Subjects with TEAEs: Serious TEAE” value (1000 mg BID oral for 10 days)?
**A.** The value was 0.

**Q.** What about the “Subjects with TEAEs: TEAE leading” value (1000 mg BID oral for 10 days) of the same compound?
**A.** Its value is 0.

**Q.** What about the “Total number of TEAEs” value (1000 mg BID oral for 10 days) of the same compound?
**A.** The value was 0.

**Q.** And the tolerability (multiple doses up to 1000 mg BID for 10 days)?
**A.** The tolerability was “generally well-tolerated”.
